Reference: patent US4973597A, “Anticonvulsant agents” (Eli Lilly and Company, priority 1989, dated 1990)

What was measured:
[1] = system: tonic extensor seizures elicited by maximal electroshock; assay: electroshock induced convulsion inhibition assay (E.S.); type: in vivo, Cox standard strain albino male mice; settings: mice; for ED50: Mus musculus, oral dose (gavage), 0.2 second, 50 milliampere corneal electroshock, inhibition of extensor tonic convulsions in half of the animals, at time of optimal response; for Time after dosing providing an approximately optimal response: oral gavage, time between dosing and administration of the electroshock
Description: In the electroshock induced convulsion inhibition assay (E.S.), the compound to be tested was suspended in acacia and administered by gavage to each of ten Cox standard strain albino male mice (18-24 g) at the dose level being investigated. Thirty to 180 minutes after compound administration, the mice were subjected to a 0.2 second, 50 milliampere electroshock through corneal electrodes. The animals were examined and evaluated immediately after the electroshock for the occurrence of clonic, flexor tonic, or extensor tonic convulsions, or death and the ED50 was determined for each compound as the dose which inhibited the occurrence of extensor tonic convulsions in one half of the animals immediately after the electroshock. For comparison, 18 milliamperes was usually sufficient to produce extensor tonic convulsions in about half of the control animals; at 50 milliamperes, almost all control animals (receiving vehicle only) died. The test results summarized in Table I are reported as the ED50 values calculated by computer interpolation of fixed doses at the time interval found to provide an optimal response after dosing. For comparison purposes, N-(2,6-dimethylphenyl)-3-pyridinecarboxamide, taught as an intermediate in Example 4 of U.S. Pat. No. 4,361,572, was also evaluated--this compound is referred to in Table I below as Compound A.

seizures = settings: man; cited from earlier work

| Compound | ED50 [1] [mg/kg] | Time after dosing providing an approximately optimal response [1] [min] | plasma level that controls seizures (seizures) [µg/mL] |
| --- | --- | --- | --- |
| Cc1cccc(C)c1NC(=O)c1cccnc1 [Compound A, N-(2,6-dimethylphenyl)-3-pyridinecarboxamide, reference compound] | 24.5 | 30 | – |
| Cc1cccc(C)c1NC(=O)c1ccc(Cl)nc1 [Example 1, 6-Chloro-N-(2,6-dimethylphenyl)-3-pyridinecarboxamide] | 31.7 | 30 | – |
| Cc1ccc(C(=O)Nc2c(C)cccc2C)cn1 [Example 2, N-(2,6-Dimethylphenyl)-6-methyl-3-pyridinecarboxamide] | 6.7 | 60 | – |
| Cc1ccc(C(=O)Nc2c(C)cccc2Cl)cn1 [Example 3, N-(2-Chloro-6-methylphenyl)-6-methyl-3-pyridinecarboxamide] | 20.2 | 60 | – |
| CNc1ccc(C(=O)Nc2c(C)cccc2C)cn1 [Example 4, 6-(Methylamino)-N-(2,6-dimethylphenyl)-3-pyridinecarboxamide] | 8.7 | 60 | – |
| O=C1NC(=O)C(c2ccccc2)(c2ccccc2)N1 [phenytoin] | – | – | ≥ 10 |
